Source: patent US9073858B2, “Methods of targeted drug development” (priority 2010, dated 2015)
Read-outs that look alike come from different tables or passages of the source.

System: MDBK line
Assay: MTT Cell Proliferation Assay, MDBK line
Assay type: cell-based, bovine
Settings: Bos taurus, MDBK
Procedure, shortened: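 Cells plated overnight, then exposed 3 days at 37 °C, 5% CO2 to compound in growth medium with 0.5% FBS and 0.5% DMSO final (0.5% DMSO as control).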

Oc1c(C(Nc2ccccn2)c2ccc(C(F)(F)F)cc2)ccc2cccnc12 (centres unmarked) [compound 10460]
IC50 (10 point follow-up, second value of pair, read-out: MTT (10 Point follow-up) MDBK): 375 nM
IC50 (72 h, second value of A431/MDBK pair, read-out: MTT-72 h MDBK): 530 nM
